Reference: PubChem BioAssay (NCI)
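At the GI50, growth is halved. TGI: concentration producing complete growth inhibition.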

Experiments:
Assay in all cases: DTP human tumour cell line panel, 384-well format; in the data active = GI50 below about 0.43 µM; inactive = the rest
786-0 renal = test system: 786-0 renal
A498 renal = test system: A498 renal
A549 NSCLC = test system: A549 NSCLC
ACHN renal = test system: ACHN renal
BT-549 breast = test system: BT-549 breast
CAKI-1 renal = test system: CAKI-1 renal
CCRF-CEM leukemia = test system: CCRF-CEM leukemia
COLO 205 colon = test system: COLO 205 colon
DU-145 prostate = test system: DU-145 prostate
HCC-2998 colon = test system: HCC-2998 colon
HCT-116 colon = test system: HCT-116 colon
HCT-15 colon = test system: HCT-15 colon
HL-60(TB) leukemia = test system: HL-60(TB) leukemia
HOP-62 NSCLC = test system: HOP-62 NSCLC
HOP-92 NSCLC = test system: HOP-92 NSCLC
HT29 colon = test system: HT29 colon
IGROV1 ovarian = test system: IGROV1 ovarian
K-562 leukemia = test system: K-562 leukemia
KM12 colon = test system: KM12 colon
LOX IMVI melanoma = test system: LOX IMVI melanoma
M14 melanoma = test system: M14 melanoma
MALME-3M melanoma = test system: MALME-3M melanoma
MCF7 breast = test system: MCF7 breast
MDA-MB-231 breast = test system: MDA-MB-231 breast
MDA-MB-435 melanoma = test system: MDA-MB-435 melanoma
MDA-MB-468 breast = test system: MDA-MB-468 breast
MOLT-4 leukemia = test system: MOLT-4 leukemia
NCI-H226 lung = test system: NCI-H226 lung
NCI-H23 lung = test system: NCI-H23 lung
NCI-H322M lung = test system: NCI-H322M lung
NCI-H460 NSCLC = test system: NCI-H460 NSCLC
NCI-H522 lung = test system: NCI-H522 lung
NCI/ADR-RES ovarian = test system: NCI/ADR-RES ovarian
OVCAR-3 ovarian = test system: OVCAR-3 ovarian
OVCAR-4 ovarian = test system: OVCAR-4 ovarian
OVCAR-5 ovarian = test system: OVCAR-5 ovarian
OVCAR-8 ovarian = test system: OVCAR-8 ovarian
PC-3 prostate = test system: PC-3 prostate
RPMI-8226 leukemia = test system: RPMI-8226 leukemia
RXF 393 renal = test system: RXF 393 renal
SF-268 CNS = test system: SF-268 CNS
SF-295 CNS = test system: SF-295 CNS
SF-539 CNS = test system: SF-539 CNS
SK-MEL-2 melanoma = test system: SK-MEL-2 melanoma
SK-MEL-28 melanoma = test system: SK-MEL-28 melanoma
SK-MEL-5 melanoma = test system: SK-MEL-5 melanoma
SK-OV-3 ovarian = test system: SK-OV-3 ovarian
SN12C renal = test system: SN12C renal
SNB-19 CNS = test system: SNB-19 CNS
SR leukemia = test system: SR leukemia
SW-620 colon = test system: SW-620 colon
T-47D breast = test system: T-47D breast
TK-10 renal = test system: TK-10 renal
U251 glioblastoma = test system: U251 glioblastoma
UACC-257 melanoma = test system: UACC-257 melanoma
UACC-62 melanoma = test system: UACC-62 melanoma
UO-31 renal = test system: UO-31 renal

CCN(c1cc(C#CCN2CCOCC2)cc(C(=O)NCc2c(C)cc(C)[nH]c2=O)c1C)C1CCC(N(C)CCOC)CC1 (centres undefined)
3.55 µM: TGI (MOLT-4 leukemia)
inactive: GI50 ([…]-0 renal) > 100 µM | GI50 (A498 renal) 91.1 µM | GI50 (A549 NSCLC) > 100 µM | GI50 (ACHN renal) > 100 µM | GI50 (BT-549 breast) > 100 µM | GI50 (CAKI-1 renal) > 100 µM | GI50 (CCRF-CEM leukemia) 4.63 µM | GI50 (COLO 205 colon) > 100 µM | GI50 (DU-145 prostate) > 100 µM | GI50 (HCC-2998 colon) 8.42 µM | GI50 (HCT-116 colon) > 100 µM | GI50 (HCT-15 colon) > 100 µM | GI50 (HL-60(TB) leukemia) > 100 µM | GI50 (HOP-62 NSCLC) 67.2 µM | GI50 (HOP-92 NSCLC) 2.55 µM | GI50 (HT29 colon) > 100 µM | GI50 (IGROV1 ovarian) > 100 µM | GI50 (K-562 leukemia) > 100 µM | GI50 (KM12 colon) > 100 µM | GI50 (LOX IMVI melanoma) > 100 µM | GI50 (M14 melanoma) > 100 µM | GI50 (MALME-3M melanoma) > 100 µM | GI50 (MCF7 breast) > 100 µM | GI50 (MDA-MB-231 breast) 24.1 µM | GI50 (MDA-MB-435 melanoma) > 100 µM | GI50 (MDA-MB-468 breast) 58.4 µM | GI50 (MOLT-4 leukemia) 1.45 µM | GI50 (NCI-H226 lung) 55.9 µM | GI50 (NCI-H23 lung) > 100 µM | GI50 (NCI-H322M lung) > 100 µM | GI50 (NCI-H460 NSCLC) > 100 µM | GI50 (NCI-H522 lung) 32.8 µM | GI50 (NCI/ADR-RES ovarian) > 100 µM | GI50 (OVCAR-3 ovarian) 40.6 µM | GI50 (OVCAR-4 ovarian) 51.4 µM | GI50 (OVCAR-5 ovarian) > 100 µM | GI50 (OVCAR-8 ovarian) > 100 µM | GI50 (PC-3 prostate) > 100 µM | GI50 (RXF 393 renal) 3.37 µM | GI50 (SF-268 CNS) > 100 µM | GI50 (SF-295 CNS) > 100 µM | GI50 (SF-539 CNS) > 100 µM | GI50 (SK-MEL-2 melanoma) 72.9 µM | GI50 (SK-MEL-28 melanoma) > 100 µM | GI50 (SK-MEL-5 melanoma) > 100 µM | GI50 (SK-OV-3 ovarian) > 100 µM | GI50 (SN12C renal) > 100 µM | GI50 (SNB-19 CNS) > 100 µM | GI50 (SR leukemia) 82.8 µM | GI50 (SW-620 colon) > 100 µM | GI50 (T-47D breast) > 100 µM | GI50 (TK-10 renal) > 100 µM | GI50 (U251 glioblastoma) > 100 µM | GI50 (UACC-257 melanoma) > 100 µM | GI50 (UACC-62 melanoma) 51.3 µM | GI50 (UO-31 renal) > 100 µM
0.193 µM: TGI (RPMI-8226 leukemia)
34.7 µM: TGI (HOP-92 NSCLC)
92.5 µM: TGI (HCC-2998 colon)
21.4 µM: TGI (CCRF-CEM leukemia)
active: GI50 (RPMI-8226 leukemia) 0.0254 µM
> 100 µM: TGI (786-0 renal) | TGI (A498 renal) | TGI (A549 NSCLC) | TGI (ACHN renal) | TGI (BT-549 breast) | TGI (CAKI-1 renal) | TGI (COLO 205 colon) | TGI (DU-145 prostate) | TGI (HCT-116 colon) | TGI (HCT-15 colon) | TGI (HL-60(TB) leukemia) | TGI (HOP-62 NSCLC) | TGI (HT29 colon) | TGI (IGROV1 ovarian) | TGI (K-562 leukemia) | TGI (KM12 colon) | TGI (LOX IMVI melanoma) | TGI (M14 melanoma) | TGI (MALME-3M melanoma) | TGI (MCF7 breast) | TGI (MDA-MB-231 breast) | TGI (MDA-MB-435 melanoma) | TGI (MDA-MB-468 breast) | TGI (NCI-H226 lung) | TGI (NCI-H23 lung) | TGI (NCI-H322M lung) | TGI (NCI-H460 NSCLC) | TGI (NCI-H522 lung) | TGI (NCI/ADR-RES ovarian) | TGI (OVCAR-3 ovarian) | TGI (OVCAR-4 ovarian) | TGI (OVCAR-5 ovarian) | TGI (OVCAR-8 ovarian) | TGI (PC-3 prostate) | TGI (RXF 393 renal) | TGI (SF-268 CNS) | TGI (SF-295 CNS) | TGI (SF-539 CNS) | TGI (SK-MEL-2 melanoma) | TGI (SK-MEL-28 melanoma) | TGI (SK-MEL-5 melanoma) | TGI (SK-OV-3 ovarian) | TGI (SN12C renal) | TGI (SNB-19 CNS) | TGI (SR leukemia) | TGI (SW-620 colon) | TGI (T-47D breast) | TGI (TK-10 renal) | TGI (U251 glioblastoma) | TGI (UACC-257 melanoma) | TGI (UACC-62 melanoma) | TGI (UO-31 renal)
